Reference: publication PMC3501516, “Anti-Diabetic Efficacy and Impact on Amino Acid Metabolism of GRA1, a Novel Small-Molecule Glucagon Receptor Antagonist” (PLoS ONE, 2012)
Marks after values point to notes of the source that are not given here.

What was measured:
hGCGR HFD/STZ mice = test: Antihyperglycemic efficacy in hGCGR HFD/STZ mice (acute, chronic, combination with des-fluoro-sitagliptin); type: in vivo, hGCGR mouse
Excerpt: The present study made use of a line of hGCGR-expressing mouse (“hGCGR mouse”) generated previously by substituting the hGCGR gene for the mouse GCGR gene. These mice were crossed with C57BL/6J.ob/+ mice (Jackson Laboratories, Bar Harbor, ME) to obtain an hGCGR.ob/+ mouse line. The hGCGR.ob/+ mice were then intercrossed to obtain hGCGR.ob/ob, hGCGR.ob/+, and hGCGR.+/+ mice (with the hGCGR.ob/+ and hGCGR.+/+ mice serving as littermate controls). […] obese (DIO) hGCGR mice were generated by maintaining hGCGR mice on a high-fat diet (HFD) in which 45–60% of calories were in fat (Product S3282, Bio-Serv, Frenchtown, NJ). High-fat-diet-streptozotocin-treated (HFD/STZ) diabetic mice were generated in-house as previously described.
Acute glucose lowering was studied in non-fasted hGCGR.ob/ob mice and HFD/STZ mice administered single doses p.o. of 1, 3 and 10 mg/kg GRA1 in 10 mL/kg 0.5% aqueous methylcellulose. Animals were fasted during the interval between dosing and the final blood glucose measurement. Glucose was measured in blood from tail bleeds using a OneTouch glucometer. In the experiments with hGCGR HFD/STZ mice, treatment groups were matched with respect to body weight and blood glucose levels.
Animals were dosed chronically with GRA1 and the DPP-4 inhibitor des-fluoro-sitagliptin by administering these agents as food admixtures. The admixtures were prepared in-house and by Research Diets (New Brunswick, NJ), with drug concentrations adjusted weekly on the basis of average food consumption and animal weight to provide targeted daily doses. In the GRA1 experiments, the targeted doses were 3, 6, 10, and 30 mg/kg•day. In des-fluoro-sitagliptin experiments, the targeted dose was 200 mg/kg•day, a relatively high amount necessary because this compound has a half-life in rodents of 1–2 h.
Plasma glucagon and active GLP-1 were measured using commercial ELISA kits (Linco Research Immunoassay, St. Charles, MO). […] Plasma insulin was determined by ELISA with a commercial kit (ALPCO Diagnostics, Windham, NH). Plasma concentrations of glycated hemoglobin A1c (HbA1c) were measured using a Micromat II test kit from Bio-Rad Laboratories (Hercules, CA). Total cholesterol, low-density lipoprotein cholesterol (LDL-c) and non-LDL-c, and aspartate aminotransferase were measured using a Roche P Modular Clinical Chemistry analyzer (Indianapolis, IN).
Figure 5 GRA1 lowers glucose in hGCGR HFD/STZ mice and further enhances the efficacy of a DPP-4 inhibitor. (A) Mean (±SEM) blood glucose hGCGR HFD/STZ mice treated with a single dose of 1, 3, or 10 mg/kg GRA1. (B) Non-fasted blood glucose concentrations in hGCGR HFD/STZ mice treated for 6 weeks with 10 mg/kg·day GRA1, 200 mg/kg·day des-fluoro-sitagliptin (des-F-sita), or the two agents in combination. (Additional data from this study are in Table 4.) *p<0.05, **p<0.01, and ***p<0.001 versus HFD/STZ controls; ^#non-significant (p>0.05) versus non-STZ controls; n = 8–15 animals per group.

[1] = system: perfused liver from hGCGR mice; test: Glucagon-stimulated glycogenolysis in perfused liver from hGCGR mouse (13C NMR); conditions: 50 pM glucagon
Protocol: Livers were perfused with Ringers solution containing 6.7 mM [2-^13C]pyruvate while ^13C content (indicative of accumulated [^13C]glycogen) was monitored dynamically by nuclear magnetic resonance imaging. At time = −22 min, 0.1–3.0 uM GRA1 or vehicle was added to the perfusate; 50 pM glucagon or vehicle was added at time 0. The data are means ±SEM.
Glycogen content of perfused hGCGR mouse liver was measured as previously described [30]. In brief, livers were perfused ex vivo with Ringers solution containing 6.7 mM [2-^13C]pyruvate while ^13C content (indicative of accumulated [^13C]glycogen) was monitored dynamically by nuclear magnetic resonance imaging.

human GCGR (hGCGR) = biological target: T1, human GCGR (hGCGR) (Homo sapiens, UniProt P47871); test: Inhibition of 125I-glucagon binding to hGCGR in membranes of CHO cells expressing hGCGR; conditions: CHO cell membranes
T1 construct: expressed in transfected cells
Excerpt: Transfected Chinese hamster ovary (CHO) cell lines were acquired and maintained as previously described, [20]. These included separate cell lines stably expressing human GCGR (hGCGR), mouse GCGR, rhesus GGCR, glucose-dependent insulinotropic peptide receptor (GIPR), GLP-1 receptor (GLP-1R), pituitary adenylate cyclase-activating polypeptide receptor type 1 (PAC1R), and vasoactive adenylate cyclase-activating polypeptide receptor type 2 (VPAC2R). Inhibition of glucagon binding to hGCGR was assayed in cell membranes prepared from the line of CHO cells that expressed the hGCGR. Functional antagonism was assayed by measuring the production of cAMP in intact CHO cells stimulated by agonists specific for their cognate receptors (i.e., glucagon for GCGR-expressing cell lines, GIP for the GIPR-expressing line, etc.). Primary human hepatocytes were obtained from In Vitro Technologies (Baltimore, MD) and glucagon-stimulated glycogenolysis was studied in these as previously described.

T1 sequence (P47871 26-477): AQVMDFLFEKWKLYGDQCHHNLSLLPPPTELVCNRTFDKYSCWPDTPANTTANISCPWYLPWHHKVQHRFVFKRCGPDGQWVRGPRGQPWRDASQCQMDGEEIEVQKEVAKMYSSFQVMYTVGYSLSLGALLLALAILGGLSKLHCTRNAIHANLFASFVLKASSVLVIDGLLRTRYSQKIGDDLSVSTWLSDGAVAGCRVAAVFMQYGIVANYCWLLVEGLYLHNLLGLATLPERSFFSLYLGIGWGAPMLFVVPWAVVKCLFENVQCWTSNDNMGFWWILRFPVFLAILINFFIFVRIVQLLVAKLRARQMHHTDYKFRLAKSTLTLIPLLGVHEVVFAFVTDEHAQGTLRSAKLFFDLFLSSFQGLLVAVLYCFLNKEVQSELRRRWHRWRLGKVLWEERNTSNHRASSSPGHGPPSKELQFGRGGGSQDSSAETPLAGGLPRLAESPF

COc1ccc2cc(-c3cc(-c4cc(C(F)(F)F)ccc4F)nn3[C@@H](C)c3ccc(C(=O)NCCC(=O)O)cc3)ccc2c1 [GRA1, N-[4-((1S)-1-{3-(2-fluoro-5-trifluoromethylphenyl)-5-[6-methoxynaphth-2-yl]-1H-pyrazol-1-yl}ethyl)benzoyl]-β-alanine]
HbA1c (hGCGR HFD/STZ mice; 5 weeks of treatment, GRA1 10 mg/kg, Des-F-sita 200 mg/kg, control diet 6.1±0.4): 5.6±0.4%
6-h fasting blood glucose (hGCGR HFD/STZ mice; 5 weeks of treatment, GRA1 10 mg/kg, Des-F-sita 200 mg/kg, control diet 323±33): 297 ± 39 mg/dL
Antihyperglycemic effect during chronic dosing (non-fasted blood glucose) (hGCGR HFD/STZ mice; 6 weeks, GRA1 10 mg/kg·day, des-fluoro-sitagliptin 200 mg/kg·day): significant and sustained
Liver Triglyceride (hGCGR HFD/STZ mice; 6 weeks, necropsy tissue, GRA1 10 mg/kg, Des-F-sita 200 mg/kg, control diet 143±10): 163 ± 11 µg/mg
Free fatty acid (hGCGR HFD/STZ mice; 6 weeks, terminal plasma, GRA1 10 mg/kg, Des-F-sita 200 mg/kg, control diet 1.4±0.2): 1.3 ± 0.3 mM
Active GLP-1 (hGCGR HFD/STZ mice; 6 weeks, terminal plasma, GRA1 10 mg/kg, Des-F-sita 200 mg/kg, control diet 2.5±0.1): 2.7 ± 0.1 pM
Inactive GLP-1 (hGCGR HFD/STZ mice; 6 weeks, terminal plasma, GRA1 10 mg/kg, Des-F-sita 200 mg/kg, control diet 8.1±1.1): 8.6 ± 0.4 pM
Plasma glucagon (hGCGR HFD/STZ mice; 6 weeks, terminal plasma, GRA1 10 mg/kg, Des-F-sita 200 mg/kg, control diet 133±21): 209±24* pg/ml
Triglyceride (hGCGR HFD/STZ mice; 6 weeks, terminal plasma, GRA1 10 mg/kg, Des-F-sita 200 mg/kg, control diet 184±26): 145±22* mg/dL
Blood glucose after single dose versus non-diabetic controls (hGCGR HFD/STZ mice; single dose 10 mg/kg): comparable to those observed in non-diabetic control animals for 24 h
Effect on blood glucose, single dose (hGCGR HFD/STZ mice; single doses of 3 and 10 mg/kg): reduced blood glucose significantly and substantially
Reduction of hepatic response to glucagon (13C glycogen loss) ([1]; 0.3 µM GRA1 pretreatment): about 50%
Hepatic response to glucagon (13C glycogen loss) ([1]; 1 µM GRA1 pretreatment): completely prevented
Hepatic response to glucagon (13C glycogen loss) ([1]; 3 µM GRA1 pretreatment): completely prevented
IC50 (human GCGR (hGCGR)): 4 nM
